Assay results reported in US20260327191A1, “GSK3a INHIBITORS AND METHODS OF USE THEREOF” (Blueprint Medicines Corporation, priority 2023, published 2026).

Tests used:
human GSK3α = biological target: T1, human GSK3α (Homo sapiens, UniProt P49840); assay: In vitro enzymatic activity assay, GSK3α; assay type: biochemical; settings: 1.0 mM ATP, 1.0 μM peptide substrate, 120 min, 25° C, read-out: Enzyme GSK3α (IC50)
T1 construct: Full length human GSK3α or GSK3B expressed as N-terminal GST fusion proteins; GST (N); purchased Carna Biosciences (Japan); host or cells: baculovirus host
Description: (§1) Full length human GSK3α or GSK3B expressed as N-terminal GST fusion proteins in baculovirus host were purchased from Carna Biosciences (Japan). The kinase was pre-incubated with ATP (adenosine-5′-triphosphate) for 45 min, then incubated with tested compounds for another 45 min in assay buffer that contains 100 mM HEPES (N-2-hydroxyethylpiperazine-N′-2-ethanesulfonic acid), pH 7.5, 10 mM MgCl2, 1.0 mM DTT, and 0.015% Briji-35. […] Percent inhibition was plotted against compound concentration to generate 10-point dose response curve with 3-fold serial dilution starting from 10 μM. IC50 value was determined from the 4-parameter logistic curve fitting.

GSK3B [1] = biological target: T2, GSK3B (Homo sapiens, UniProt P49841); assay: In vitro enzymatic activity assay, GSK3β; assay type: biochemical; set-up: Full length human GSK3α or GSK3B expressed as N-terminal GST fusion proteins; GST (N); purchased Carna Biosciences (Japan); host or cells: baculovirus host; settings: 1.0 mM ATP, 1.0 μM peptide substrate, 120 min, 25° C, read-out: Enzyme GSK3β (IC50)
Description: as §1

GSK3B [2] = biological target: T2, GSK3B; assay: NanoBRET cellular target engagement assay, Nanoluc-GSK3B in HEK293 cells; assay type: cell-based; set-up: expressed in transfected cells; settings: NanoBRET GSK3β IC50, HEK293 cells, tracer K-8, 2 hours, 37° C
Description: (§2) In the assay, HEK293 cells stably expressing either Nanoluc-GSK3A or Nanoluc-GSK3B were maintained in culture media and seeded, using a multidrop dispenser, at a density of 5×10^3 cells per well in 384-well white plates with 100 ng/ml doxycycline (Sigma) overnight.
(§3) Compound was first diluted in DMSO to generate a 9-point serial dilution then diluted to 10× final concentration in Opti-MEM™ (Gibco). After overnight incubation, cell medium was aspirated from the seeded cells using a microplate automatic washer, then 27 μL of pre-warmed Opti-MEM™ with kinase tracer (K-8) and 3 μL of Opti-MEM™ diluted DMSO or compounds were added per well. Plates were protected from light, mixed in an orbital shaker for 3 min at RT and incubated at 37° C., 5% CO2 in a humidified incubator for 2 hours. After acclimation at RT for 15 min, 15 μL of 3× complete NanoBRET™ Nano-Glo Substrate/Inhibitor (Promega) was added per well. Plates were mixed in an orbital shaker for 3 min at RT and incubated for an additional 30 min. Donor emission at 460 nm and acceptor emission at 647 nm were measured in EnVision multilabel plate reader (Perkin Elmer).

GSK3A = biological target: T3, GSK3A (Homo sapiens, UniProt P49840); assay: NanoBRET cellular target engagement assay, Nanoluc-GSK3A in HEK293 cells; assay type: cell-based; settings: NanoBRET GSK3α IC50, HEK293 cells, tracer K-8, 2 hours, 37° C
T3 construct: expressed in transfected cells
Description: as §2, §3

T1 sequence (P49840 whole entry, the tested form may be a part): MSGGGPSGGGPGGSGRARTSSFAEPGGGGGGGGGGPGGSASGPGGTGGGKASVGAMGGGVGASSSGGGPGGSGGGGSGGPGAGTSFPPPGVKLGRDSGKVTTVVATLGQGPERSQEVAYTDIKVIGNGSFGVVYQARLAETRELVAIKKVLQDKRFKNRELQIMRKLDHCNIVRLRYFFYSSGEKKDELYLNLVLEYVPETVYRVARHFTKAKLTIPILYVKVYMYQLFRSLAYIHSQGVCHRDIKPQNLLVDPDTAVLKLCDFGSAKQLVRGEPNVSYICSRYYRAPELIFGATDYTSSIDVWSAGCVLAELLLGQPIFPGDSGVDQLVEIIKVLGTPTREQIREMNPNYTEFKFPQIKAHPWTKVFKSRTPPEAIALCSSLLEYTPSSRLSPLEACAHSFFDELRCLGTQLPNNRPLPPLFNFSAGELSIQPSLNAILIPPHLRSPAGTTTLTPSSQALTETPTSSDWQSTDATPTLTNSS
T3 sequence (P49840 whole entry): as the sequence (P49840 whole entry, the tested form may be a part) above
T2 sequence (P49841 whole entry, the tested form may be a part): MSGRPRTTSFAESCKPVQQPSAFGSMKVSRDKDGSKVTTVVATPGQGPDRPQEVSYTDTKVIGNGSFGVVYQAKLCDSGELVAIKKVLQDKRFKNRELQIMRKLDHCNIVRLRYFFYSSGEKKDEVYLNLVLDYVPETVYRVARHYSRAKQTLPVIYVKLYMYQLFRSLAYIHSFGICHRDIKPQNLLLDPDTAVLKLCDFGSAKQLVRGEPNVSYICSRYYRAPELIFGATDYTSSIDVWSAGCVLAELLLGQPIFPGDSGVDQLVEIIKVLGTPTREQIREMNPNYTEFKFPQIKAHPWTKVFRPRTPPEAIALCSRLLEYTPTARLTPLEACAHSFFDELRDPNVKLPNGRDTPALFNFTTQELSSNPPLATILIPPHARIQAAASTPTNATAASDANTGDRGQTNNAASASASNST

SMILES | IC50 (human GSK3α) [nM] | IC50 (GSK3B [1]) [nM] | IC50 (GSK3B [2]) [nM] | IC50 (GSK3A) [nM]
COCC(N)c1cncc(NC(=O)c2c(N)ncn(-c3c(Cl)cc(Cl)cc3Cl)c2=O)c1 (single isomer, unassigned) [Example 49, (R)-4-amino-N-(5-(1-amino-2-methoxyethyl)pyridin-3-yl)-6-oxo-1-(2,4,6-trichlorophenyl)-1,6-dihydropyrimidine-5-carboxamide or (S)-4-amino-N-(5-(1-amino-2-methoxyethyl)pyridin-3-yl)-6-oxo-1-(2,4,6-trichlorophenyl)-1,6-dihydropyrimidine-5-carboxamide] | 2.5 | 161 | 144 | 2.8
C[C@@H](N)c1cncc(NC(=O)c2c(N)ncn(-c3c(Cl)cc(Cl)cc3Cl)c2=O)c1 (single isomer, unassigned) [Example 50, (R)-4-amino-N-(5-(1-aminoethyl)pyridin-3-yl)-6-oxo-1-(2,4,6-trichlorophenyl)-1,6-dihydropyrimidine-5-carboxamide or (S)-4-amino-N-(5-(1-aminoethyl)pyridin-3-yl)-6-oxo-1-(2,4,6-trichlorophenyl)-1,6-dihydropyrimidine-5-carboxamide] | 16.5 | 708 | 439 | 7.4
C[C@@H](N)c1cncc(NC(=O)c2c(N)ncn(-c3c(Cl)cc(OC4CC4)cc3Cl)c2=O)c1 (single isomer, unassigned) [Example 51, (R)-4-amino-N-(5-(1-aminoethyl)pyridin-3-yl)-1-(2,6-dichloro-4-cyclopropoxyphenyl)-6-oxo-1,6-dihydropyrimidine-5-carboxamide or (S)-4-amino-N-(5-(1-aminoethyl)pyridin-3-yl)-1-(2,6-dichloro-4-cyclopropoxyphenyl)-6-oxo-1,6-dihydropyrimidine-5-carboxamide] | 2.8 | 142 | 124 | 2.2
Nc1ncn(-c2c(Cl)cc(C(F)F)cc2Cl)c(=O)c1C(=O)Nc1cncc([C@@H]2COCCCN2)c1 (single isomer, unassigned) [Example 59, (R)-N-(5-(1,4-oxazepan-3-yl)pyridin-3-yl)-4-amino-1-(2,6-dichloro-4-(difluoromethyl)phenyl)-6-oxo-1,6-dihydropyrimidine-5-carboxamide or (S)-N-(5-(1,4-oxazepan-3-yl)pyridin-3-yl)-4-amino-1-(2,6-dichloro-4-(difluoromethyl)phenyl)-6-oxo-1,6-dihydropyrimidine-5-carboxamide] | 3.1 | 224 | 187 | 2.5
COc1cc(Cl)c(-n2cnc(N)c(C(=O)Nc3cncc([C@@H]4COCCCN4)c3)c2=O)c(Cl)c1 (single isomer, unassigned) [Example 75, (R)-N-(5-(1,4-oxazepan-3-yl)pyridin-3-yl)-4-amino-1-(2,6-dichloro-4-methoxyphenyl)-6-oxo-1,6-dihydropyrimidine-5-carboxamide or (S)-N-(5-(1,4-oxazepan-3-yl)pyridin-3-yl)-4-amino-1-(2,6-dichloro-4-methoxyphenyl)-6-oxo-1,6-dihydropyrimidine-5-carboxamide] | 2.4 | 106 | 186 | 3.6

Further compounds by falling IC50 (human GSK3α), results first:

IC50 (human GSK3α) [nM] | IC50 (GSK3B [1]) [nM] | IC50 (GSK3B [2]) [nM] | IC50 (GSK3A) [nM] | SMILES
12.9 | 625 | 356 | 6.8 | COc1cc(C)c(-n2cnc(N)c(C(=O)Nc3cncc(C4CCCCCN4)c3)c2=O)c(C)c1 (single isomer, unassigned) [Example 53, (R)-4-amino-N-(5-(azepan-2-yl)pyridin-3-yl)-1-(4-methoxy-2,6-dimethylphenyl)-6-oxo-1,6-dihydropyrimidine-5-carboxamide or (S)-4-amino-N-(5-(azepan-2-yl)pyridin-3-yl)-1-(4-methoxy-2,6-dimethylphenyl)-6-oxo-1,6-dihydropyrimidine-5-carboxamide]
12.5 | 536 | 513 | 7 | CCOC[C@H](N)c1cncc(NC(=O)c2c(N)ncn(-c3c(Cl)cc(COC)cc3Cl)c2=O)c1 (single isomer, unassigned) [Example 69, (R)-4-amino-N-(5-(1-amino-2-ethoxyethyl)pyridin-3-yl)-1-(2,6-dichloro-4-(methoxymethyl)phenyl)-6-oxo-1,6-dihydropyrimidine-5-carboxamide or (S)-4-amino-N-(5-(1-amino-2-ethoxyethyl)pyridin-3-yl)-1-(2,6-dichloro-4-(methoxymethyl)phenyl)-6-oxo-1,6-dihydropyrimidine-5-carboxamide]
9.6 | 465 | 363 | 6.6 | COc1cc(Cl)c(-n2cnc(N)c(C(=O)Nc3cncc([C@@H](C)N)c3)c2=O)c(Cl)c1 (single isomer, unassigned) [Example 74, (R)-4-amino-N-(5-(1-aminoethyl)pyridin-3-yl)-1-(2,6-dichloro-4-methoxyphenyl)-6-oxo-1,6-dihydropyrimidine-5-carboxamide or (S)-4-amino-N-(5-(1-aminoethyl)pyridin-3-yl)-1-(2,6-dichloro-4-methoxyphenyl)-6-oxo-1,6-dihydropyrimidine-5-carboxamide]
7.9 | 382 | 277 | 5.4 | C[C@@H](N)c1cncc(NC(=O)c2c(N)ncn(-c3c(Cl)cc(C(F)F)cc3Cl)c2=O)c1 (single isomer, unassigned) [Example 57, (R)-4-amino-N-(5-(1-aminoethyl)pyridin-3-yl)-1-(2,6-dichloro-4-(difluoromethyl)phenyl)-6-oxo-1,6-dihydropyrimidine-5-carboxamide or (S)-4-amino-N-(5-(1-aminoethyl)pyridin-3-yl)-1-(2,6-dichloro-4-(difluoromethyl)phenyl)-6-oxo-1,6-dihydropyrimidine-5-carboxamide]
6 | 349 | 206 | 2.9 | COCc1cc(Cl)c(-n2cnc(N)c(C(=O)Nc3cncc([C@@H](C)N)c3)c2=O)c(Cl)c1 (single isomer, unassigned) [Example 66, (R)-4-amino-N-(5-(1-aminoethyl)pyridin-3-yl)-1-(2,6-dichloro-4-(methoxymethyl)phenyl)-6-oxo-1,6-dihydropyrimidine-5-carboxamide or (S)-4-amino-N-(5-(1-aminoethyl)pyridin-3-yl)-1-(2,6-dichloro-4-(methoxymethyl)phenyl)-6-oxo-1,6-dihydropyrimidine-5-carboxamide]
2.9 | 145 | 201 | 2.4 | COCc1cc(Cl)c(-n2cnc(N)c(C(=O)Nc3cncc([C@H](N)CC(F)F)c3)c2=O)c(Cl)c1 (single isomer, unassigned) [Example 70, (R)-4-amino-N-(5-(1-amino-3,3-difluoropropyl)pyridin-3-yl)-1-(2,6-dichloro-4-(methoxymethyl)phenyl)-6-oxo-1,6-dihydropyrimidine-5-carboxamide or (S)-4-amino-N-(5-(1-amino-3,3-difluoropropyl)pyridin-3-yl)-1-(2,6-dichloro-4-(methoxymethyl)phenyl)-6-oxo-1,6-dihydropyrimidine-5-carboxamide]
2.1 | 105 | 73.4 | 1.4 | COCc1cc(Cl)c(-n2cnc(N)c(C(=O)Nc3cncc([C@@H](C)N)c3)c2=O)c(Cl)c1 (single isomer, unassigned) [Example 67, (S)-4-amino-N-(5-(1-aminoethyl)pyridin-3-yl)-1-(2,6-dichloro-4-(methoxymethyl)phenyl)-6-oxo-1,6-dihydropyrimidine-5-carboxamide or (R)-4-amino-N-(5-(1-aminoethyl)pyridin-3-yl)-1-(2,6-dichloro-4-(methoxymethyl)phenyl)-6-oxo-1,6-dihydropyrimidine-5-carboxamide]
